The results in this text go back to PubChem BioAssay (NCI).

The term GI50 denotes the concentration that inhibits growth by half. A word on the TGI: it is the concentration giving total growth inhibition. Higher therefore signals lower sensitivity of the cells.

Common to all, as to assay: DTP human tumour cell line panel, 48 h
The subject of test [1] is A498 renal.
Test [2] has as its system CCRF-CEM leukemia.
Test [3] deals with HCC-2998 colon.
The subject of test [4] is LOX IMVI melanoma.
Test [5] has as its system MALME-3M melanoma.
In test [6] the test system is NCI-H226 lung.
The subject of test [7] is NCI-H23 lung.
Test [8] concerns NCI-H460 lung.
The test system of test [9] is SF-268 CNS.
The test system of test [10] is SF-539 CNS.

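How tested: cells in 96-well plates exposed to compound for 48 hours at five concentrations. GI50 = concentration required for 50% inhibition of growth. TGI is the concentration that stops growth completely.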 Some results are limits rather than exact numbers.

Turning to `COc1ccc2c(c1)C(=O)c1c-2n(CCCN2CCOCC2)c(=O)c2ccccc12`, the GI50 in test [1] was 1.87 µM; in test [2], 1.19 µM; in test [3], 3.08 µM; in [4], 1.45 µM; in test [5], 3.44 µM; in test [6] it was 2.59 µM. Besides, the GI50 in test [7] is 2.94 µM; in test [8] it was 0.561 µM; in [9], 2.7 µM; in test [10] it was 2.17 µM. The concentration for total growth inhibition (TGI) in test [1] is 5.48 µM; in test [2] it was > 20.7 µM; in test [3], 20.4 µM; in test [4], 3.36 µM; in [5], 18.7 µM; in test [6] it was 7.57 µM. The TGI in test [7] was 10.1 µM; in test [8], 3.58 µM; in test [9] it was > 43.9 µM; in [10], 5.33 µM.

As to `Cc1c(C)c2ccc(OC/C=C3\CCC(=O)O3)cc2oc1=O`, the GI50 was 17.9 µM in [1]; 17.4 µM in [2]; 18.3 µM in test [3]; 15.2 µM in [4]; 11.9 µM in test [5]; 18.9 µM in test [6]. Also, the GI50 in [7] was 15.4 µM; in test [8], 16.4 µM; in [9] it was 17 µM; in test [10], 16.1 µM. Further, the TGI in [1] was 37.1 µM; in test [2] it was 58.4 µM; in test [3] it was 33 µM; in test [4], 29.4 µM; in test [5], 26.7 µM; in test [6], 40.8 µM. The TGI in [7] stood at 29.6 µM; in [8], 35.6 µM; in test [9] it was 46.1 µM; in [10], 31.7 µM.

As for `Clc1ccc(CN2COc3c(cc(Cl)c4cccnc34)C2)cc1`, the TGI was 24.8 µM in [1]; 4.94 µM in test [2]; 12 µM in test [3]; 2.97 µM in test [4]; 5.74 µM in test [5]; 8.67 µM in test [6]. The concentration for total growth inhibition (TGI) in [7] is 6.8 µM; in test [8], 9.19 µM; in test [9], 12.7 µM; in test [10], 4.92 µM.

For the compound `Fc1ccc(Nc2nc(NCCNc3ccnc4cc(Cl)ccc34)nc(N3CCOCC3)n2)cc1`, the GI50 in test [1] is 1.48 µM; in test [2], 0.457 µM; in test [3], 2 µM; in [4] it was 2.95 µM; in [5] it was 2.76 µM; in test [6], 14.4 µM. In addition, the GI50 in test [7] is 14.6 µM; in test [8], 3.44 µM; in test [9], 6.85 µM; in [10], 3.79 µM. The TGI in [1] was 8.47 µM; in test [2], 16.3 µM; in test [3], 3.95 µM; in [4], 10.1 µM; in test [5], 4.52 µM; in [6], 33.4 µM. The TGI was 30.2 µM in [7], 14 µM in test [8], 20.5 µM in [9] and 15.2 µM in test [10].

Turning to `CCN1C(=O)N(CC)C2C1NN=c1s/c(=C3\C(=O)N(C)c4ccccc43)c(=O)n12` (stereo not given), the 50% growth inhibitory concentration (GI50) in test [1] was 0.23 µM; in [2], 1.37 µM; in [3], 1.8 µM; in test [4] it was 0.958 µM; in test [5], 0.993 µM; in test [6], 1.45 µM. In addition, the GI50 in test [7] is 3.24 µM; in test [8] it was 1.29 µM; in test [9] it was 10.8 µM; in test [10], 0.545 µM. Besides, the TGI in test [1] is 0.908 µM; in [2], > 100 µM; in test [3], > 100 µM; in [4], > 100 µM; in test [5] it was > 100 µM; in [6] it was > 100 µM. Moreover, the total growth inhibition concentration (TGI) in [7] is > 88.1 µM; in test [8], > 100 µM; in test [9], > 100 µM; in test [10], 3.77 µM.

Turning to `COc1ccccc1-c1c(C)nn2c(NCc3ccccn3)cc(C)nc12`, the GI50 in [1] is 3.84 µM; in test [2], 6.89 µM; in [3] it was > 50 µM; in test [4] it was 29.8 µM; in [5] it was > 17.1 µM; in [6], 40.3 µM. For the same compound, the GI50 is 48.7 µM in test [7], 27.1 µM in [8], 34.8 µM in test [9] and 44.3 µM in [10]. Besides, the TGI in test [1], in test [2], in test [3], in test [4], in [5] and in [6] was > 50 µM in each case. Besides, the total growth inhibition concentration (TGI) in [7], in [8], in test [9] and in test [10] was > 50 µM each time.

For the compound `Cc1ccc2c(c1)ncn2-c1ncnc2c1CC(C)c1ccccc1N2C` (stereo not given), the GI50 in test [1] was 0.0567 µM; in test [2] it was 0.046 µM; in test [3], 0.304 µM; in [4], 0.124 µM; in [5], 0.0513 µM; in [6], 1.21 µM. The GI50 in test [7] is 0.428 µM; in test [8], 0.225 µM; in test [9] it was 0.209 µM; in [10], 0.0896 µM. The concentration for total growth inhibition (TGI) in test [1] was found to be 17 µM; in test [2], 10.5 µM; in test [3] it was 14.5 µM; in test [4] it was 13 µM; in test [5] it was 4.6 µM; in test [6] it was 18.7 µM. The TGI in test [7] turned out to be 19.4 µM; in test [8] it was 11.3 µM; in test [9] it was 15.6 µM; in test [10], 11.6 µM.

For the compound `CCOC(=O)N1CCN(S(=O)(=O)c2oc(-c3ccc(Cl)cc3)nc2C#N)CC1`, the GI50 in [1] is 17.2 µM; in test [2], 0.36 µM; in test [3], 3.15 µM; in [4], 0.573 µM; in [5], 1.67 µM; in [6], 64.3 µM. In addition, the GI50 in test [7] is 3.93 µM; in test [8] it was 15 µM; in [9] it was 2.56 µM; in [10] it was 3.34 µM. In addition, the TGI was > 100 µM in test [1]; 5.13 µM in [2]; 10.8 µM in [3]; 2.02 µM in test [4]; 3.09 µM in test [5]; > 100 µM in test [6]. Besides, the concentration for total growth inhibition (TGI) in test [7] stood at 15.1 µM; in test [8], 46 µM; in [9], 6.75 µM; in test [10], 10.5 µM.
